Patent US20060209305A1, “Biosensor” (FUJI PHOTO FILM CO., LTD., priority 2005, published 2006)

Tested on: Carbonic Anhydrase
Experiment: Evaluation of Hydrochlorothiazide binding capacity by surface plasmon resonance on CA captured on an Anti-CA-immobilized chip
Details: two minutes after start of replacement
Description: The following experiment was carried out using a device shown in FIG. 22 of Japanese Patent Laid-Open No. 2001-330560 (hereinafter referred to as the surface plasmon resonance measurement device of the present invention) (shown in FIG. 1 of the present specification) and a dielectric block shown in FIG. 23 of Japanese Patent Laid-Open No. 2001-330560 (hereinafter referred to as the dielectric block of the present invention) (shown in FIG. 2 of the present specification).
After solutions were removed from the above dextran measuring chip, 70 μl of a mixture solution of 200 mM EDC (N-ethyl-N′-(3-dimethylaminopropyl)carbodiimide hydrochloride) and 50 mM NHS (N-hydroxysuccinimide) was added and the chip was then allowed to stand for 10 minutes. After the mixture solution was removed, the chip was washed three times with 100 μl of water and three times with 100 μl of Acetate 4.5 buffer (produced by Biacore). The chip filled with 100 μl of Acetate 4.5 buffer was set on the surface plasmon resonance measurement device of the present invention. The inside of the chip was replaced with anti-Carbonic Anhydrase antibody (hereafter referred to as Anti-CA, which was purchased from COSMO BIO Co., Ltd.(NOR)) solution (dissolved in Acetate 4.5 (produced by BIAcore) to […]), and the chip was allowed to stand for 30 minutes for immobilizing the Anti-CA. The inside of the chip was then replaced with 1M ethanolamine solution, and the chip was allowed to stand for 10 minutes. The inside of the chip was washed ten times with 100 μl of Acetate 4.5 buffer, thereby preparing an Anti-CA-immobilized chip. The amount of change in resonance signal due to Anti-CA immobilization was 15,000RU. After the measurement of the signal change, the inside of the Anti-CA-immobilized chip was washed three times with 100μl of 1×PBS (pH7.4) buffer (Wako Pure Chemical Industries, Ltd.).
The dielectric block of the Anti-CA-immobilized chip was then capped with a silicon rubber, thereby preparing a cell with an inner volume of 15 μl. Also, a fluid channel system was prepared by making two 1-mm φ holes in the silicon rubber cap and putting a teflon tube (registered trademark) with an internal diameter of 0.5 mm and an external diameter of 1 mm through the holes. Individual chips with such fluid channel system were set on the surface plasmon resonance measurement device of the present invention.
The inside of the fluid channel system was filled with 1×PBS (pH7.4) buffer. Signal changes were measured at 0.5 seconds intervals with reference to the signal prior to the replacement of the fluid. The inside of the fluid channel system was then replaced with Carbonic Anhydrase (produced by SIGMA, hereinafter referred to as CA) solution (dissolved in 1×PBS (pH7.4) to 100 μg/ml). When the binding signal reached 3,000RU, the inside was replaced with Hydrochlorothiazide (produced by SIGMA) solution (dissolved in 1×PBS (pH7.4) to 50 μM) by the individual methods indicated in Table 1. […] In order to obtain highly reliable data, it is preferable that the compound binding detection signal be 5RU or more.

Signal change (Method No. 1 (Example): 50 μM in 1×PBS pH7.4, fluid 100 μl, flow 100 μl/sec, replacement 1 sec, stop 119 sec): 15 RU
Signal change (Method No. 2 (Example): 50 μM in 1×PBS pH7.4, fluid 100 μl, flow 10 μl/sec, replacement 10 sec, stop 110 sec): 12 RU
Signal change (Method No. 3 (Example): 50 μM in 1×PBS pH7.4, fluid 150 μl, flow 5 μl/sec, replacement 30 sec, stop 90 sec): 10 RU
Signal change (Method No. 4 (Example): 50 μM in 1×PBS pH7.4, fluid 200 μl, flow 20 μl/sec, replacement 10 sec, stop 110 sec): 10 RU
Signal change (Method No. 5 (Comparative example): 50 μM in 1×PBS pH7.4, fluid 300 μl, flow 2.5 μl/sec, replacement 120 sec, stop 0 sec): −1 RU
Signal change (Method No. 6 (Comparative example): 50 μM in 1×PBS pH7.4, fluid 600 μl, flow 5 μl/sec, replacement 120 sec, stop 0 sec): −4 RU
Signal change (Method No. 7 (Comparative example): 50 μM in 1×PBS pH7.4, fluid 1200 μl, flow 10 μl/sec, replacement 120 sec, stop 0 sec): −10 RU
Signal change (Method No. 8 (Comparative example): 50 μM in 1×PBS pH7.4, fluid 2400 μl, flow 20 μl/sec, replacement 120 sec, stop 0 sec): −20 RU
Structure (SMILES): NS(=O)(=O)c1cc2c(cc1Cl)NCNS2(=O)=O [Hydrochlorothiazide]
